Test results published in patent publication US8765433B2, “Alcohol dehydrogenases (ADH) useful for fermentive production of lower alkyl alcohols” (priority 2009, dated 2014).

Assays:
[1] = target: T1, Thermus sp. ATN1 ADH (TADH), SEQ ID NO: 33 (Thermus sp. ATN1, UniProt B2ZRE3); assay: isobutyraldehyde reduction kinetics (A340, initial rates); assay type: biochemical; conditions: relative to SadB
T1 sequence (B2ZRE3 1-347): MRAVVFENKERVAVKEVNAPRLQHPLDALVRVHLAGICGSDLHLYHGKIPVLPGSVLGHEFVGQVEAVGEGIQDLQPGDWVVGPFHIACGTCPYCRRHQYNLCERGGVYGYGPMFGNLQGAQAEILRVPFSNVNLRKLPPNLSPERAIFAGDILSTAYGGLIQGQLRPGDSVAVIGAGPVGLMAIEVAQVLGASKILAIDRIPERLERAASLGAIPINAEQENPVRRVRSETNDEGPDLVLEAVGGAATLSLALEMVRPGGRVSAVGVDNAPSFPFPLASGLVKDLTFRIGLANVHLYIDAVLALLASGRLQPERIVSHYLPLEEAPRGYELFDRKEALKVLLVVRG

[2] = target: T2, Rattus norvegicus ADH1 (RnADH1), SEQ ID NO: 32 (Rattus norvegicus, UniProt P06757); assay: as above; assay type: biochemical
T2 construct: hexa-histidine (pBADHisA) (N); made in house; host or cells: E. coli (BL21-CodonPlus or a proprietary E. coli strain)
T2 sequence (P06757 whole entry): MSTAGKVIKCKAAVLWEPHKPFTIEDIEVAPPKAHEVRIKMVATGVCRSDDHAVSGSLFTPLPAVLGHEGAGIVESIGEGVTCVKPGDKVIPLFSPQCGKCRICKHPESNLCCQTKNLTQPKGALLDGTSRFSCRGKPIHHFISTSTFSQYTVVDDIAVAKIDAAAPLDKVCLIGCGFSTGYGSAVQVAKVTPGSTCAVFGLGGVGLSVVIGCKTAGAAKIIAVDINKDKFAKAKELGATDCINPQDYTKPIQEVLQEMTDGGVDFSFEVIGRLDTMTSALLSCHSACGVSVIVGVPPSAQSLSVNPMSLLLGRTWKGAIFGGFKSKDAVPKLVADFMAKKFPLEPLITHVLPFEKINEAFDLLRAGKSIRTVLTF

CC(C)C=O [isobutyraldehyde]
KM as a percentage of the same parameter for SadB [1]: 130% | kcat as a percentage of the same parameter for SadB [1]: 14% | kcat/KM as a percentage of the same parameter for SadB [1]: 10% | Km ([2]; 30° C., pH 7.0, NADH specific, low KM precludes accurate determination, read-out: KM (Isobutanal)): ≤ 3 µM | kcat ([2]; isobutyraldehyde reduction, 30° C., pH 7.0, NADH specific): ~5 s⁻¹ | KM as a percentage of the same parameter for SadB ([2]; relative to SadB): <1% | kcat as a percentage of the same parameter for SadB ([2]; relative to SadB): 5% | kcat/KM as a percentage of the same parameter for SadB ([2]; relative to SadB): 1588%
